Active and inactive are the calls of the source.
Experiments:
Estrogen receptor beta [1] = biological target: T1, Estrogen receptor beta (Homo sapiens, UniProt Q92731); experiment: ERβ–SRC-3 coactivator interaction inhibitors, confirmation, orthogonal assay, biochemical, ELISA, streptavidin-HRP readout (AID 1060)
Estrogen receptor beta [2] = biological target: T1, Estrogen receptor beta
[3] = biological target: T2, DNA repair protein RAD52 homolog (Homo sapiens, UniProt P43351); format: functional, biochemical
T2 sequence (P43351 whole entry): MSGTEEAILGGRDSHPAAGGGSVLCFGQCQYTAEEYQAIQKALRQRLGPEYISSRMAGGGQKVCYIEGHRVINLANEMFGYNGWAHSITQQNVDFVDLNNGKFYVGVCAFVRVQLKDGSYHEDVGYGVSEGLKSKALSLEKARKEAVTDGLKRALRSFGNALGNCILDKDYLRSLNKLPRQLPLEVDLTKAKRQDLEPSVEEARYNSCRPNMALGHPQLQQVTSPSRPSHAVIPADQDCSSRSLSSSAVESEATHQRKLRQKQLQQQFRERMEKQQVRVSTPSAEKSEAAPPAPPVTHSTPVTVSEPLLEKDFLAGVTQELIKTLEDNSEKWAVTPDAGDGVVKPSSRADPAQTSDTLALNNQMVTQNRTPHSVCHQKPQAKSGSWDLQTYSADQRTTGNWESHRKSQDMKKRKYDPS

[4] = biological target: T3, High affinity choline transporter 1 (Homo sapiens, UniProt Q9GZV3); experiment: CHT inhibitors, dose response, cell-based, 5-point CRC, membrane potential dye (AID 504840); format: functional
T3 sequence (Q9GZV3 whole entry): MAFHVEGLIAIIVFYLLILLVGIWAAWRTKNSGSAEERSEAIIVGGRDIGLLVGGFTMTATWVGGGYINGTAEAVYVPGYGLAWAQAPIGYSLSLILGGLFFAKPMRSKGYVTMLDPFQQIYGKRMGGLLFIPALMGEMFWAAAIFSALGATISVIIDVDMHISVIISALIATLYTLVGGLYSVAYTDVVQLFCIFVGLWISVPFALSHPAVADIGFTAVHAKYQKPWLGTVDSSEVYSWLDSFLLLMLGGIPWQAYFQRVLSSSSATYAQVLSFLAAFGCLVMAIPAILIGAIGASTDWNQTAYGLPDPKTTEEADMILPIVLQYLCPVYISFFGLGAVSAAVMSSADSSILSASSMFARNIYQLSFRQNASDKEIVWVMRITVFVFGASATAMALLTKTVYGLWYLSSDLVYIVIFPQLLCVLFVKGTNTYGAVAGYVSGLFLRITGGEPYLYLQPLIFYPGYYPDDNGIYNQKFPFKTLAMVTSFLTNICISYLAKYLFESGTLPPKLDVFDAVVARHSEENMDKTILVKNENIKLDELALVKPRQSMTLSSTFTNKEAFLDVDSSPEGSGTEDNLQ

[5] = HepG2 cell cytotoxicity, dose response, cytotoxicity control, cherry-picked samples (AID 1159577); format: functional, cell-based
[6] = P. falciparum Dd2 growth inhibitors, dose response, SYBR Green, cherry-picked samples (AID 1159567); format: functional, cell-based
[7] = biological target: T4, Endoribonuclease toxin MazF (Escherichia coli K-12, UniProt P0AE70); experiment: fluorescent RNA oligo signal without MazF, dose response, counter-screen for MazEF activator project, biochemical, fluorescence, single-stranded RNase substrate (AID 588502); format: functional
T4 sequence (P0AE70 whole entry): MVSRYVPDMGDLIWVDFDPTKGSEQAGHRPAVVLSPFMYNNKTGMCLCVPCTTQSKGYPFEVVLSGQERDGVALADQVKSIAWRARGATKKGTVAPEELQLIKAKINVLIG

[8] = Luminescence-based cell-based high throughput dose response assay to identify activators of the DAF-12 from the parasite S. stercoralis (ssDAF-12).; format: functional
[9] = biological target: T5, Oxysterols receptor LXR-beta (Homo sapiens, UniProt P55055); experiment: LXR agonists, Gal4 luciferase reporter, dose response, counter-screen for ssDAF-12 agonist project, cell-based, luminescence, HEK293, S. stercoralis campaign (AID 720737); format: functional; details: read-out: IC50 (the source's name)
T5 sequence (P55055 whole entry): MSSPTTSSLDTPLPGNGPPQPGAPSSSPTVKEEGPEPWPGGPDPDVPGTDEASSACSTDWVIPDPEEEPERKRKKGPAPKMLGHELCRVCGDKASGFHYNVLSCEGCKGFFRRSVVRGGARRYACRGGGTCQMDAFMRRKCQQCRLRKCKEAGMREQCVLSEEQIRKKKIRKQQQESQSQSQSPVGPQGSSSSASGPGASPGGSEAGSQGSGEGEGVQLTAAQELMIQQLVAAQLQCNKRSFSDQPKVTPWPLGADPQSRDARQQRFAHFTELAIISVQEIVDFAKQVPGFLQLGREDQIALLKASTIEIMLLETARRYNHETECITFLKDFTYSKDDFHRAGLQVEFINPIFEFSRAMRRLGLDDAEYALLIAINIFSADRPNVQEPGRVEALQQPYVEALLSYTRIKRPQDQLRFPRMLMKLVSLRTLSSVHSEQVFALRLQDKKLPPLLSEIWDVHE

[10] = biological target: T4, Endoribonuclease toxin MazF; experiment: MazF toxin RNase activators, dose response, biochemical, fluorescence, single-stranded RNA substrate, uHTS hits (AID 588481); format: functional
Paired box protein Pax-8 = Paired box protein Pax-8 (Homo sapiens, UniProt Q06710); experiment: inhibitors of PAX8-driven TPO luciferase reporter, dose response, RMG-I cells, cherry-pick (AID 687027); format: functional, cell-based;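 note: luciferase reporter driven by Pax8 target thyroperoxidase promoter measured by SteadyGlo luminescence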
Sequence of Paired box protein Pax-8 (Q06710 whole entry): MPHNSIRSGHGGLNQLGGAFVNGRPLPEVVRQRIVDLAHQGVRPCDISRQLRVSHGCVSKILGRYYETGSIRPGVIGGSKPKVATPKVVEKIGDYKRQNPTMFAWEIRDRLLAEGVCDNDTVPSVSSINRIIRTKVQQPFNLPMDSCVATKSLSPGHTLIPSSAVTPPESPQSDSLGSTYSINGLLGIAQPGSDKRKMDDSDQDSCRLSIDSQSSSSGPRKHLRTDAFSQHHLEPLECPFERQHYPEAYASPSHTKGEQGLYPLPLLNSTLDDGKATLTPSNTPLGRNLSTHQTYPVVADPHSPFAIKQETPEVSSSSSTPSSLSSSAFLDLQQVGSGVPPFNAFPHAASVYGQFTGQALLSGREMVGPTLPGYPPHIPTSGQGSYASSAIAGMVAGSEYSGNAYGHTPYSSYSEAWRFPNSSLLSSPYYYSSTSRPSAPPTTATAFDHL

[11] = cytotoxicity in OVCAR8 ovarian cancer cells, dose response, PAX8 project, cell-based, plate reader, dry powder samples (AID 743197); format: functional; details: OVCAR-8
[12] = NIH:OVCAR-3 ovarian cancer cell cytotoxicity, dose response, PAX8 inhibitor project, plate reader, dry powder samples (AID 743044); format: functional, cell-based
[13] = IGROV1 ovarian cancer cell cytotoxicity, dose response, PAX8 inhibitor project, plate reader, dry powder samples (AID 743043); format: functional, cell-based; details: IGROV-1
Caspase-6 = biological target: T6, Caspase-6 (Homo sapiens, UniProt P55212); experiment: human caspase-6 inhibitors, dose response, biochemical, VEID-R110 fluorescence, cherry-pick (AID 720632)
T6 sequence (P55212 whole entry): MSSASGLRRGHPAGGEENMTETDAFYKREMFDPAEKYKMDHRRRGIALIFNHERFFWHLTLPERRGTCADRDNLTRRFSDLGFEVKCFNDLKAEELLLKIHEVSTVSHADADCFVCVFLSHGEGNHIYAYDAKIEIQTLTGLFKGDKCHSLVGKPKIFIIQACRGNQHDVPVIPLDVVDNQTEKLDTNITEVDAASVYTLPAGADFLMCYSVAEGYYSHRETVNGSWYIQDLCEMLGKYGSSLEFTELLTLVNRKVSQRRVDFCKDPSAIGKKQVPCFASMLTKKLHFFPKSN

[14] = inhibitors of PGC1a acetylation in cells, dose response, cell-based, cherry-picked samples (AID 720514); format: functional;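 note: potency may reflect raised or lowered acetylation signal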
[15] = non-specific cell cytotoxicity, dose response, cytotoxicity control for PAX8 inhibitor project, plate reader, dry powder samples (AID 743021); format: functional, cell-based
[16] = Luminescence Cell-Based Dose Confirmation HTS to Identify Inhibitors of Platelet Dense Granule Release. [Related pubchem assays: 1663 (Primary HTS), 1678 (Summary of Project)]; format: functional
[17] = biological target: Luciferin 4-monooxygenase (Photinus pyralis, UniProt P08659); experiment: firefly luciferase enzyme inhibitors, dose response, biochemical, luminescence (AID 1891)
Sequence of Luciferin 4-monooxygenase (P08659 whole entry): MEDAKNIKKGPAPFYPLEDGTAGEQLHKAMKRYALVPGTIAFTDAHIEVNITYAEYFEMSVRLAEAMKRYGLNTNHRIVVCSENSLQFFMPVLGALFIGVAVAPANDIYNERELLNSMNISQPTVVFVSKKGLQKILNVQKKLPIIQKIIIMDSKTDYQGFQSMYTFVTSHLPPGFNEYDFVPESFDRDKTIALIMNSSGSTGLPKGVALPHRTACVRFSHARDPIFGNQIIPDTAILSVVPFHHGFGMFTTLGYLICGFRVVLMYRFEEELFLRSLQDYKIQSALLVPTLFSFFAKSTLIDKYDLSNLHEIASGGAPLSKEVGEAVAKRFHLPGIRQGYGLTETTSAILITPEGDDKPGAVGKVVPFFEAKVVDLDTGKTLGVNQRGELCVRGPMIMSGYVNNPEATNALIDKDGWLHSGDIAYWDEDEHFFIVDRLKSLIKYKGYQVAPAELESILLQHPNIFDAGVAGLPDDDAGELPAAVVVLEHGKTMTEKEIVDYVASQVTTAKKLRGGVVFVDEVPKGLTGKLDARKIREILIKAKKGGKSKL

[18] = THP-1 cell cytotoxicity, dose response, cytotoxicity control for Vif-APOBEC3G degradation inhibitor project, THP-1 cells (AID 1117359); format: functional; details: Human immunodeficiency virus 1, THP-1
[19] = cytotoxicity toward NIH3T3 fibroblasts, dose response, counter-screen, cell-based, ATP luminescence, mouse fibroblasts (AID 2010); format: functional;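 note: cells exposed to compound for about 90 hours before reading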
Streptococcus = experiment: Group A Streptococcus viability loss, dose response, counter-screen for streptokinase expression inhibitor project, luminescence, BacTiterGlo (AID 1915); format: functional, organism-based;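 note: potency for reduction of bacterial viability or growth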
[20] = microbe, parasite or virus in culture; format: functional; details: Mycobacterium tuberculosis
[21] = C. albicans growth with fluconazole, confirmation, fluorescence, retest (AID 2467); format: functional, cell-based
[22] = test system: Streptococcus sp. 'group A'; experiment: growth inhibition of control SK(-) GAS strain, dose response, counter-screen for streptokinase expression inhibitor project, luminescence, kanamycin, BacTiterGlo, confirmation (AID 1900); format: functional, organism-based
[23] = NIH-3T3 fibroblast cytotoxicity, dose response, cytotoxicity control, cell-based, fluorescence, Alamar Blue, secondary assay (AID 2327); format: functional;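 note: NIH-3T3 mouse fibroblasts cultured with fluconazole at 8 µg/mL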
Streptokinase A = biological target: T7, Streptokinase A (Streptococcus pyogenes serotype M1, UniProt P10520); experiment: S. pyogenes streptokinase expression inhibitors, potency, dose response, plasminogen activation absorbance, OD405 (AID 1914); format: functional, Streptococcus pyogenes M1 GAS;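 note: secreted streptokinase activity via plasminogen activation per viability signal from cell pellet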
T7 sequence (P10520 whole entry): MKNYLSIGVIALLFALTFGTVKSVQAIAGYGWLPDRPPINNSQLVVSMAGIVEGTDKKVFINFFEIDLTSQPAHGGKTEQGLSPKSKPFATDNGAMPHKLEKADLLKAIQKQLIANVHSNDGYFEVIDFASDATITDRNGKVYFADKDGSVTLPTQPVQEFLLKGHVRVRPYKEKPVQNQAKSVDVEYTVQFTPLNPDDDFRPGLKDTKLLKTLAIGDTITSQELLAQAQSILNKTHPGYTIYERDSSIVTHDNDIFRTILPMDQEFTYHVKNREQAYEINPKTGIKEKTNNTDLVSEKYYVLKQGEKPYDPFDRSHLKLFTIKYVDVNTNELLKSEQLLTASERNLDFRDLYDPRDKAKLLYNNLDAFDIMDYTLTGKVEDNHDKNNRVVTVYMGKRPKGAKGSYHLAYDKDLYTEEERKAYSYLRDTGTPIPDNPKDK

[24] = inhibitors of intracellular T. cruzi replication, confirmation, NIH3T3 host cells, beta-gal luminescence (AID 2044); format: functional, cell-based;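 note: intracellular parasites grown in NIH/3T3 mouse fibroblasts as host cells; luminescent beta-galactosidase reporter signal from transgenic T. cruzi replicating inside host cells; inhibitors lower the luminescence signal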

T1 sequence (Q92731 whole entry): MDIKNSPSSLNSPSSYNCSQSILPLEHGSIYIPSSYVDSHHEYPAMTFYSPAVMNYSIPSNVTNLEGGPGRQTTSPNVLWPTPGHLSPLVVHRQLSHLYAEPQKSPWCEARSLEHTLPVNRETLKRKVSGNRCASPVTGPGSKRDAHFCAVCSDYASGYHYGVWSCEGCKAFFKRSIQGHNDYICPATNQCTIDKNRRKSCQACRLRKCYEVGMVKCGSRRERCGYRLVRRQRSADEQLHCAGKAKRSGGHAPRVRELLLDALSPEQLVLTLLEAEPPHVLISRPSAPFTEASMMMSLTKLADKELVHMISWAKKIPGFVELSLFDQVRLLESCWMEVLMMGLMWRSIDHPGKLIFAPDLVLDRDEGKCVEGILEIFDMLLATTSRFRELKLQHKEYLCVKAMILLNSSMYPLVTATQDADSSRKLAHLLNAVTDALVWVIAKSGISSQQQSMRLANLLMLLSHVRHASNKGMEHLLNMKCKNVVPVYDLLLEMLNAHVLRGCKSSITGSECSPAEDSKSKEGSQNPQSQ

Compound: CC(=N)/C(C#N)=C(/O)CSc1nnnn1-c1ccc(C)cc1
- IC50 (Estrogen receptor beta [1]): 0.345 µM (not active)
- IC50 (Estrogen receptor beta [2]): 13.7 µM (active)

Compound: CCN1CCN(c2cc(C)c3cc(NC(=S)N4CCOCC4)ccc3n2)CC1
- AC50 [3]: 22 µM (active)
- IC50 [4]: 12.6 µM (active)

Compound: O=C(Nc1ccccc1)N1CCCCN2[C@@H](CO)[C@@H](c3ccc(-c4ccccc4)cc3)[C@@H]2C1
- AC50 [5]: 9.01 µM (active)
- AC50 [6]: 4.43 µM (active)

Compound: CCn1c(C)cc(C=C2C(=O)c3ccccc3C2=O)c1C
- EC50 [7]: 62.8 µM (inactive)
- IC50 [8]: > 67.5 µM (inactive)
- EC50 [9]: > 67.5 µM (inactive)
- EC50 [10]: 44.5 µM (inactive)

Compound: COC(=O)[C@]1(C)N[C@H](CN(C)C(C)=O)[C@@H]2C(=O)N(Cc3ccccc3)C(=O)[C@@H]21
- IC50 [8]: > 67.5 µM (inactive)
- EC50 [9]: > 67.5 µM (inactive)

Compound: CCCC#Cc1ccc([C@H]2[C@@H](CO)N3CCCCN(S(=O)(=O)Cc4ccccc4)C[C@H]23)cc1
- AC50 (Paired box protein Pax-8): 20.5 µM (active)
- AC50 [11]: > 70 µM (inactive)
- AC50 [12]: 23.5 µM (active)
- AC50 [5]: 11.9 µM (active)
- AC50 [6]: 2.67 µM (active)
- AC50 [13]: 30.9 µM (active)

Compound: O=C(O)c1ccccc1NS(=O)(=O)c1ccc(N/N=C/c2cccc(O)c2O)c([N+](=O)[O-])c1
- AC50 (Caspase-6): 6.45 µM (active)

Compound: COc1ccc(-c2nn(-c3ccccc3)cc2C(=O)Nc2cccc(C(=O)O)c2)cc1[N+](=O)[O-]
- AC50 (Caspase-6): 5.45 µM (active)

Compound: CC(C)c1ccc(-c2nnn(CC(=O)N3CCCCC3)n2)cc1
- AC50 [14]: 24.3 µM (active)

Compound: CCCCOc1ccc(/C=C/C(=O)OCC(=O)c2c(N)n(C)c(=O)n(C)c2=O)cc1OCC
- AC50 [14]: 12.6 µM (active)

Compound: O=S(=O)(c1ccccc1)N1C[C@@H]2N[C@H](C1)[C@@H]2c1ccc(-c2ccc(F)cc2)cc1
- AC50 [5]: 10.9 µM (active)
- AC50 [6]: 5.34 µM (active)

Compound: C[C@H](CO)N1C[C@H](C)[C@@H](CN(C)C(=O)Cc2ccccc2)OCCCC[C@H](C)Oc2ccc(NC(=O)Nc3ccc(C(F)(F)F)cc3)cc2C1=O
- AC50 (Paired box protein Pax-8): 4.34 µM (active)
- AC50 [11]: > 70 µM (inactive)
- AC50 [15]: 48.5 µM (active)

Compound: Cc1ccc(Nc2nc(N)c3ccccc3n2)cc1Cl
- IC50 [8]: > 67.6 µM (inactive)
- EC50 [16]: 4.99 µM (active)
- EC50 [17]: 0.528 µM (active)
- EC50 [9]: > 67.6 µM (inactive)

Compound: CCOc1ccc(C(=O)NC(=S)Nc2ccc(N3CCC(C)CC3)cc2)cc1[N+](=O)[O-]
- CC50 [18]: > 40 µM (active)

Compound: C[C@H]1CCCCO[C@H](CN(C)C(=O)Nc2ccc(C(F)(F)F)cc2)[C@@H](C)CN([C@@H](C)CO)C(=O)c2cc(NC(=O)Nc3ccccc3)ccc2O1
- AC50 (Paired box protein Pax-8): 3.02 µM (active)
- AC50 [11]: > 70 µM (inactive)
- AC50 [12]: 22.1 µM (active)
- AC50 [13]: 59.3 µM (active)

Compound: O=C(N/N=C\C=C\c1ccc([N+](=O)[O-])o1)c1cccs1
- EC50 [19]: 5.29 µM (active)
- EC50 (Streptococcus): 6.16 µM (active)
- CC50 [20]: 30.6 µM (active)
- EC50 [21]: 0.068 µM (active)
- EC50 [22]: 3.56 µM (active)
- EC50 [23]: > 160 µM (inconclusive)
- AC50 (Caspase-6): 7.38 µM (active)
- EC50 (Streptokinase A): > 150 µM (not active)
- EC50 [24]: 0.243 µM (active)

Compound: COc1cccc(CN(C)C[C@H]2OCc3ccccc3-c3c(n(C)c4ccccc34)C(=O)N([C@@H](C)CO)C[C@H]2C)c1
- AC50 [5]: 18 µM (active)
- AC50 [6]: 1.62 µM (active)

Compound: COc1ccc(-c2nc3ccccc3c(=O)o2)cc1OC
- AC50 [14]: 28.1 µM (active)

Reference: ChEMBL document CHEMBL1201862, “PubChem BioAssay data set” (2004)
